# “And” between values parts separate entries of the source, which are not always exact repeats. Identical values can stand only once.
# What was measured:
# HepG2 cells = experiment: MTT antiproliferative assay, HepG2 cells; assay type: cell-based
# Description: Recently, OSe agents have attracted interest due to their potential chemoprotective and antitumor properties. We have developed several OSe compounds with promising antioxidant, antimicrobial, and antitumor properties. Therefore, we estimated the OSe agents’ antiproliferative activities against different cancer cells, i.e., MCF-7 and HepG2 cells and healthy lung fibroblast WI-38 cells, using the MTT assay. The drug doxorubicin was employed as the standard. The corresponding therapeutic indices (TI) are described as the proportion of the WI38 cells IC50 to the IC50 of the cancer cell (e.g., MCF-7 and HepG2) (Table 1).
# The products’ anticancer activity was examined using the MTT assay against breast (MCF-7) carcinoma cells, liver (HepG2), and normal WI-38 cells, following the previously reported method. Experimental details can be found in the Supplementary Materials.
# 1.1. The biological assays
# 1.1.1. The anticancer activity
# The breast adenocarcinoma (MCF-7), Hepatocellular carcinoma (HEPG-2), and normal fibroblast (WI-38) cells were obtained from ATCC via Holding company for biological products and vaccines (VACSERA), Cairo, Egypt. The reagents […] medium, MTT, DMSO, and fetal bovine serum was obtained from Sigma Aldrich. Dulbecco’s modified Eagle’s medium was used as the culture medium for the cells, and the cytotoxicity was evaluated using the reported MTT assay. Doxorubicin was used as the positive reference, and the IC50 values were obtained from the corresponding dose-response curve.
# This colorimetric assay is based on converting the yellow tetrazolium bromide (MTT) to a purple formazan derivative by mitochondrial succinate dehydrogenase in viable cells. Cell lines were cultured in […] medium with 10% fetal bovine serum. Antibiotics added were 100 units/ml penicillin and 100µg/ml streptomycin at 37 C in a 5% Co2 incubator. The cell lines were seeded in a 96-well plate at a density of 1.0x10^4 cells/well. at 37 C for 48 h under 5% Co2. After incubation, the cells were treated with different concentrations of compounds and incubated for 13 […]
# Finally, dimethyl sulfoxide (DMSO) in the volume of 100 µl is added to each well to dissolve the purple formazan formed. The colorimetric assay is measured and recorded at an absorbance of 570 nm using a plate reader (EXL 800, USA). The percentage of the relative cell viability was calculated as (A570 of treated samples/A570 of the untreated sample) X 100. […]
# E. coli [1] = experiment: Agar diffusion assay, E. coli; assay type: cell-based, Escherichia coli
# Description: (§1) The encouraging antitumor properties of the OSe compounds motivated us to evaluate their corresponding antimicrobial activities against the C. albicans fungal strain, S. aureus Gram-positive bacteria, and E. coli Gram-negative bacteria. Therefore, we applied the agar diffusion and minimum inhibitory concentration (MIC) methods using clotrimazole antifungal and ampicillin antibacterial drugs as standards.
# (§2) The products’ antimicrobial properties were examined according to the previously reported method, via agar well diffusion assay against E. coli, S. aureus, and C. albicans. A microdilution method was also used to record MICs (M), following the previously reported procedure. Experimental details can be found in the Supplementary Materials.
# 1.1. […]
# 1.1.2. The antimicrobial activity
# The antimicrobial activities of the OSe compounds were evaluate d against C. albicans yeast as well as E.
# coli gram-negative and S. aureus gram-positive bacteria employing the agar well diffusion assay. […]
# 5 g, and beef extract 3 g) seeded with the dedicated strain. Incubation lasted for 13 h at 36 0C.
# Experiments were replicated three times and the antifungal clotrimazole and antibiotic ampicillin
# 1.1.3. […]
# C. albicans = experiment: Agar diffusion assay, C. albicans; assay type: cell-based, Candida albicans
# [2] = DPPH radical scavenging assay
# Experimental: The antioxidant activities of the OSe compounds were intensively investigated because these are usually the cause of their chemopreventive potency. Their redox activities were evaluated via DPPH and ABTS assays, using ascorbic acid as the standard. We spectrophotometrically measured the antioxidant efficiency of the OSe compounds by their ability to decolorise the DPPH^. and ABTS^. radicals at […] (Figure 2).
# The compounds’ antioxidant properties were assessed by in vitro bioassays using DPPH and ABTS, following the reported method. Details are in the Supplementary Materials.
# Figure 4 Estimation of the OSe compounds’ redox activities via DPPH and ABTS experiments. All tests are mean ± S.D. ABTS experiment: absorbance was followed at 734 nm for OSe compounds (50 µL, 1 mM in MeOH) and ABTS solution (60 µL). DPPH Absorbance was monitored at 517 nm for OSe compounds (200 µL, 1 mM in MeOH) and DPPH (400 µL) after 30 min. […]
# 1.1.3. The antioxidant activity
# 1.1.3.1. The DPPH bioassay
# The hydrogen atom or electron donation ability of the corresponding compounds was measured by estimating the bleaching of the purple color of a methanolic solution of DPPH [5]. This spectrophotometric assay uses stable DPPH. reagent. The sample was prepared by adding […] of the OSe compounds (1 mM in methanol) to […] DPPH in methanol. After 30 min of incubation in the dark, the absorbance was read against a blank at […]. Ascorbic acid (vitamin C) and ebselen were used as standard antioxidants (positive control). A blank sample was run without DPPH. A negative control sample was run using methanol instead of the sample. The radical scavenging activity was calculated using the following equation:
# Inhibition%= (Ablank-Asample)/(Ablank)*100. […]
# E. coli [3] = experiment: MIC by microdilution, E. coli; assay type: cell-based; conditions: Escherichia coli; microdilution method
# Description: as §1, §2
# Briefly, a concentration of 1 mM was prepared for each compound by dissolving in DMSO. Paper discs of standard size […] were sterilized in an autoclave and soaked in 9 µL of the test compounds, and placed in the Petri dishes, which in turn contain a nutrient media (agar 9 g, peptone 5 g, and beef extract 3 g) seeded with the dedicated strain. Incubation lasted for 13 h at 36 0C. […]
# S. aureus = experiment: Agar diffusion assay, S. aureus; assay type: cell-based; conditions: Staphylococcus aureus; 6-mm disks soaked with 20 μM of the OSe agents; read-out: S. aureus ZID (inhibition zone diameter)
compound,measurement,setting,value
"Nc1ccc([Se]CC(=O)NOCc2ccccc2)cc1 [Compound 8, 2-((4-Aminophenyl)selanyl)-N-(benzyloxy)acetamide]",IC50,"HepG2 cells; Homo sapiens, HepG2, 24 h, read-out: HepG2 IC50",7.57 ± 0.5 µM
same,HepG2 TI (therapeutic index),HepG2 cells; ratio of IC50 against WI38 cells to IC50 against HepG2 cells,3.6
same,E. coli ZID (inhibition zone diameter),E. coli [1]; 6-mm disks soaked with 20 μM of the OSe agents,16 mm
same,E. coli IA% (activity index),E. coli [1]; ratio of inhibition zone of compound to that of positive control (ampicillin),69.6%
same,zone of inhibition at 20 µM,"C. albicans; Candida albicans, read-out: C. albicans ZID (inhibition zone diameter)",22 mm
same,C. albicans IA% (activity index),C. albicans; ratio of inhibition zone of compound to that of positive control (clotrimazole),91.7%
same,antioxidant (scavenging) activity in the DPPH assay,"[2]; compounds 200 µL, 1 mM in MeOH, DPPH 400 µL, 30 min, absorbance at 517 nm",85.1% and 92.3%
same,IC50,"[2]; concentration causing 50% decrease in absorbance, DPPH assay",23.67 ± 0.21 µM
same,MIC,E. coli [3],8 µM
same,zone of inhibition at 20 µM,S. aureus,19 mm

# From publication PMC10059083, “Design, Synthesis, and Biological Evaluation of Novel Hydroxamic Acid-Based Organoselenium Hybrids” (Pharmaceuticals, 2023)
